Earlier results, collected in patent publication US6919359B2, “Azabicyclic-substituted-heteroaryl compounds for the treatment of disease” (Pfizer Inc, priority 2001, dated 2005).

Key:
[1] = molecular target: T1, 5HT3R (Homo sapiens, UniProt P46098)
T1 sequence (P46098 24-478): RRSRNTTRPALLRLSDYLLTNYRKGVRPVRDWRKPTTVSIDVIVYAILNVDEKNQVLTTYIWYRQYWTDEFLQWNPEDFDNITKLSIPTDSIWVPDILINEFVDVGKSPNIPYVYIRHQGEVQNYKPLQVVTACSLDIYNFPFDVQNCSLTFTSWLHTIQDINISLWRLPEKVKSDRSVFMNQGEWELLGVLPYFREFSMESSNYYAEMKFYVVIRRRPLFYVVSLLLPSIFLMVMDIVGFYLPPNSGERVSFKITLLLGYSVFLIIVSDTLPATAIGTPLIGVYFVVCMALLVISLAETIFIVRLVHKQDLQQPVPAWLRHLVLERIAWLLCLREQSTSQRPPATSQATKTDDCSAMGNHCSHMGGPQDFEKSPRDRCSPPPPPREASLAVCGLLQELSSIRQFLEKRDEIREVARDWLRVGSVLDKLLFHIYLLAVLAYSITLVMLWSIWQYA

[2] = molecular target: α7 nAChR (Homo sapiens, UniProt P36544)
Chain of α7 nAChR (P36544 23-502): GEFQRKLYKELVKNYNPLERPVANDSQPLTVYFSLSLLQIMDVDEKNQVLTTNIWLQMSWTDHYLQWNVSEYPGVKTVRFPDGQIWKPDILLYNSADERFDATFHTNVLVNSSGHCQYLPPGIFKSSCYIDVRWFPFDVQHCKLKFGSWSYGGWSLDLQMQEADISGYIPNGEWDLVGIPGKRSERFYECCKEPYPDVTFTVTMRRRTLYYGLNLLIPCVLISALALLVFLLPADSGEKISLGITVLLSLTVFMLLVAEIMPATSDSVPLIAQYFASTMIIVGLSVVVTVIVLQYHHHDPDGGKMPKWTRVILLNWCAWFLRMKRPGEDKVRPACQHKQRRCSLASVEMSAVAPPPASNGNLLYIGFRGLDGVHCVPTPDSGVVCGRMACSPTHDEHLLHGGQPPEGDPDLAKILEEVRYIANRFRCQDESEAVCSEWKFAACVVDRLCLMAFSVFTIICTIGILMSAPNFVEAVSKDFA

Row | SMILES | activity at the 5HT3R [1] | activity at the α7 nAChR [2]
1 | COc1ccc(/C=C2\CCCN=C2c2cccnc2)c(OC)c1 [GTS-21] | little activity | 
2 | Cc1nccn1CC1CCc2c(c3ccccc3n2C)C1=O (centres unmarked) [Ondansetron] |  | little activity
